Measurements reported in patent publication US8604214B2, “Compounds for alleviation, prevention or treatment of osteoporosis, the preparation thereof and pharmaceutical composition comprising the same” (Ewha University-Industry Collaboration Foundation, priority 2011, dated 2013).

How the values were obtained:
Type in all cases: cell-based, ICR mice
[1] = tested on: bone marrow cells (BMM), TRAP-positive multinucleated osteoclasts; assay: RANKL-induced osteoclast differentiation of BMM, TRAP staining; details: Mus musculus, 96 h, RANKL and 30 ng/ml M-CSF, 4 days, TRAP-positive cells having 3 or more nuclei, read-out: IC50 (μM), multinucleated osteoclast formation
Text: ICR mice (6˜9 weeks old, male) were sacrificed by cervical dislocation, followed by immersion in 70% ethanol for sterilization. Dissection was made on the tibia skin to remove the muscle attached thereto. The tibia was excised by cutting the distal tibia and dislocating the patella. The tibia were then cut slightly at their opposite ends. A 25-gauge (G) syringe needle was inserted into the bone at one end and α-MEM (Minimum Essential Medium) was infused into the bone through the needle to collect bone marrow cells.
After centrifugation, a cell pellet was suspended in α-MEM and red blood cells in the suspension were removed with two volumes of Gey's solution. After centrifugation, the cell pellet was resuspended in α-MEM supplemented with 10% FBS.
After a primary culture of the bone marrow cells, the bone marrow cells were incubated overnight in 10 ng/ml M-CSF (macrophage colony-stimulating factor) and then for an additional three days in 30 ng/ml M-CSF. After Adhesive cells (BMM) were recovered, ng/ml RANKL and 30 ng/ml M-CSF or ng/ml RANKL, 30 ng/ml M-CSF in combination with various concentrations of the K11, K14, K17, K18, K19, or K22 compound were added to each well plated at a density of 1×10^5 cells/well and each well was incubated for 4 days. The incubated to cells were fixed for 10 min with 10% formalin and then re-fixed for 1 min with ethanol/acetone (1:1(v/v)). The cells were stained for TRAP (tartrate-resistant acid phosphatase). TRAP-positive cells having 3 or more nuclei were evaluated as multinucleated osteoclasts by observation under a microscope, and their IC50 values are given in the following table 1.

[2] = tested on: osteoclast-specific marker genes (calcitonin receptor, cathepsin K, αv-integrin, β3-integrin, ATP6v0d2, DC-STAMP); assay: RT-PCR of osteoclast-specific marker genes; details: R+K11: 50 ng/ml RANKL following pretreatment with 10 μM K11 for 30 minutes, compared to RANKL; FIG. 3A
Procedure: Total RNA isolation was conducted using Easy-blue (Intron Biochemistry, Inc.). cDNA was synthesized from […] of the total RNA using an oligodT primer and 10 mM dNTP, 1 unit of an RNase inhibitor and 4 units of Scrip reverse transcriptase (Fermentas, Life science) at 42° C. for 60 min, followed by termination by heating at 70° C. for 10 min.
(§1) In FIG. 3, Veh represents a control group treated with DMSO, RANKL represents a group treated with 50 ng/ml RANKL, K11 represents a group treated with 10 μM K11, R+K11 represents a group treated with 50 ng/ml RANKL following pretreatment with 10 μM K11 for 30 minutes, while * represents p<0.05 compared to Veh and ** represents *: p<0.05 compared to RANKL. N.D.=Not Detectable. FIG. 3A is graphs showing analyzed results of reverse transcription polymerase chain reaction (RT-PCR) performed for measurement of expression levels of osteoclast-specific marker genes (calcitonin receptor, cathepsin K, αv-integrin, β3-integrin, ATP6v0d2, DC-STAMP), FIG. 3B is a view of result of pits formed on dentine slices by bone absorption according to treatment with K11 compound and FIG. 3C is a graph showing analyzed results of the experiment results obtained in FIG. 3B. […]

[3] = tested on: BMM cells on dentine slices (bone resorption of osteoclasts); assay: Pit formation assay on dentine slices; details: 50 ng/ml RANKL, 30 ng/ml M-CSF and 10 μM K11, six days, compared to RANKL; FIGS. 3B and 3C
Procedure: BMM cells were cultured for six days on dentine slices in 50 ng/ml RANKL and 30 ng/ml M-CSF, or 50 ng/ml RANKL 30 ng/ml and 10 μM K11 compound. After the cells on surfaces of dentine slice were washed, pits were stained with toluidin blue (J. T. Baker, UK, 1 μg/ml). Pits formed on the dentine slices by bone absorption were observed under a microscope and were analyzed.
as §1

NFATc1 = assay: Western blot analysis of NFATc1 expression; details: 200 ng/ml RANKL following pretreatment with 10 μM K11 for 30 minutes; FIG. 4
Procedure: (§2) After BMM cells treated with reagent were incubated for a predetermined period of time, the BMM cell were lysed in a lysis buffer and centrifuged. Following normalization to BSA (bovine serum albumin) standards, protein concentrations were quantitatively analyzed using a protein assay kit (Bio-Rad). Twenty micrograms of the protein was denatured and separated by SDS-PAGE (poly acrylamide gel electrophoresis) and transferred for 1 hour and 45 minutes onto a PVDF membrane in 80 V. Subsequently, the membrane was blocked with PBST (Phosphate Buffered Saline Tween-20) containing 5% skim milk, followed by reaction with anti-NFATc1 (Nuclear factor of activated T-cells cytoplasmic 1, 1:200, Santa Cruz) antibody or anti-c-fos (1:1000, Cell Signaling) antibody as a primary antibody, respectively (1:200 ratio herein indicated means dilution of 200 times). After the membrane was washed five times with TBST and reacted with HRP (horseradish peroxidase)-conjugated secondary antibody, the protein was visualized using ECL Advance (Amersham Co.) and analyzed.
(§3) In FIGS. 4 and 5, veh represents a control group treated with DMSO, RANKL represents a group treated with 200 ng/ml RANKL, R+K11 represents a group treated with 200 ng/ml RANKL following pretreatment with 10 μM K11 for 30 minutes, while * represents p<0.05 compared to Veh and ** represents *: p<0.05 compared to RANKL.

c-fos = assay: Western blot analysis of c-fos expression; details: 200 ng/ml RANKL following pretreatment with 10 μM K11 for 30 minutes; FIG. 5
Procedure: as §2, §3

| IC50 [1] [µM] | SMILES | also measured |
| --- | --- | --- |
| 7.77 | Clc1cccc(OCCCCCOc2nc3ccccc3s2)c1 [Compound K14, 2-(5-(3-chlorophenoxy)pentyloxy)benzo[d]thiazole] | – |
| 1.56 | COc1cc(C(=O)N(C(C)C)C(C)C)ccc1OCCCCCOc1nc2ccccc2s1 [Compound K11, 4-(5-(Benzo[d]thiazol-2-yloxy)pentyloxy)-N,N-diisopropyl-3-methoxybenzamide] | expression levels of osteoclast-specific marker genes [2]: significantly decreased; number of pits on dentine slices [3]: significant reduction; RANKL-induced increase in the expression level of NFATc1 (NFATc1): the effect of RANKL was reduced; RANKL-induced increase in the expression level of c-fos (c-fos): the effect of RANKL was reduced |
| 23.4 | COc1ccccc1OCCCCCOc1nc2ccccc2s1 [Compound K17, 2-(5-(2-Methoxyphenoxy)pentyloxy)benzo[d]thiazole] | – |
| 18.4 | Fc1ccccc1OCCCCCOc1nc2ccccc2s1 [Compound K18, 2-(5-(2-Fluorophenoxy)pentyloxy)benzo[d]thiazole] | – |

| SMILES | IC50 [1] [µM] | also measured |
| --- | --- | --- |
| c1ccc(OCCCCOc2nc3ccccc3s2)cc1 [Compound K19, 2-(4-Phenoxybutoxy)benzo[d]thiazole] | 17.7 | – |
| COc1cc(C(=O)N(C(C)C)C(C)C)ccc1OCCCCOc1nc2ccccc2s1 [Compound K22, 4-(4-(Benzo[d]thiazol-2-yloxy)butoxy)-N,N-diisopropyl-3-methoxy Benzamide] | 2.2 | – |
